Measured values as given in US7446199B2, “Compositions useful as inhibitors of protein kinases” (Vertex Pharmaceuticals Incorporated, priority 2003, dated 2008).

Experiments:
[1] = target: T1, FLT-3 (Homo sapiens, UniProt P36888); test: Inhibition of FLT-3, radiometric filter-binding assay; format: biochemical; details: 90 μM ATP, 0.5 mg/mL pE4Y, room temperature
T1 construct: 0.02% BSA and 3 nM FLT-3
T1 sequence (P36888 27-993): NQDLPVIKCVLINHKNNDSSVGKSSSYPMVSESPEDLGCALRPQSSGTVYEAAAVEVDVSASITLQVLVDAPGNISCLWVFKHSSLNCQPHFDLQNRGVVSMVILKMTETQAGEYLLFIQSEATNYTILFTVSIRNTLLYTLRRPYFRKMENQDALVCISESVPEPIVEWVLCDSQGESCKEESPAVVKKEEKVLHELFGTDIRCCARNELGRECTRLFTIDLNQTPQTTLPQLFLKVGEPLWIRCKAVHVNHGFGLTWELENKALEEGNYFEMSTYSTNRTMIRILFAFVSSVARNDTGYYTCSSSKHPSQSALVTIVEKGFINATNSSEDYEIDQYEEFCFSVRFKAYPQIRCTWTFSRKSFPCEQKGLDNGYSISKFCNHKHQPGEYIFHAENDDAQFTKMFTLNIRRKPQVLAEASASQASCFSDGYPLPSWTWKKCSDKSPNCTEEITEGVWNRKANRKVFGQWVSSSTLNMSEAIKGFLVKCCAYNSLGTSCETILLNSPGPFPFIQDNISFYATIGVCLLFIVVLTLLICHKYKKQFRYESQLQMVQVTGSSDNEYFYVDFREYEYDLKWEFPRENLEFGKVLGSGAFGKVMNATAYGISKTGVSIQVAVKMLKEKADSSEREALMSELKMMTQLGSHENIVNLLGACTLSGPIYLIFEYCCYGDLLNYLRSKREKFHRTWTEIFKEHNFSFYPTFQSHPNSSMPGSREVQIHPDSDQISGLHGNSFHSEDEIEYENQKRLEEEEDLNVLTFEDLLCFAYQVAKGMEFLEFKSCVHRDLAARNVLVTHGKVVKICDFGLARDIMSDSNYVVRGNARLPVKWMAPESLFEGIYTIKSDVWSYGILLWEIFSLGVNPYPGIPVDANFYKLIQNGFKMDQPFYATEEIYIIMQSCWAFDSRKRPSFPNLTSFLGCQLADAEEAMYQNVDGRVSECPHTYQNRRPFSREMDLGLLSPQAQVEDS
Protocol: Compounds were screened for their ability to inhibit FLT-3 activity using a radiometric filter-binding assay. This assay monitors the ^33P incorporation into a substrate poly(Glu, Tyr) 4:1 (pE4Y). Reactions were carried out in a solution containing 100 mM HEPES (pH 7.5), 10 mM MgCl2, 25 mM NaCl, 1 mM DTT, 0.01% BSA and 2.5% DMSO. Final substrate concentrations in the assay were 90 μM ATP and 0.5 mg/mL pE4Y (both from Sigma Chemicals, St Louis, Mo.). The final concentration of compounds is generally between 0.01 and 5 μM. Typically, a 12-point titration was conducted by preparing serial dilutions from 10 mM DMSO stock of test compound. Reactions were carried out at room temperature.
Two assay solutions were prepared. Solution 1 contains 100 mM HEPES (pH 7.5), 10 mM MgCl2, 25 mM NaCl, 1 mg/ml pE4Y and 180 μM ATP(containing 0.3 μCi of [γ-^33P]ATP for each reaction). Solution 2 contains 100 mM HEPES (pH 7.5), 10 mM MgCl2, 25 mM NaCl, 2 mM DTT, 0.02% BSA and 3 nM FLT-3. The assay was run on a 96 well plate by mixing 50 μL each of Solution 1 and […] of the test compounds. The reaction was initiated with Solution2. After incubation for 20 minutes at room temperature, the reaction was stopped with 50 μL of 20% TCA containing 0.4 mM of ATP. All of the reaction volume was then transferred to a filter plate and washed with 5% TCA by a Harvester9600 from TOMTEC (Hamden, Conn.). The amount of ^33P incorporation into pE4y was analyzed by a Packard TopCount Microplate Scintillation Counter (Meriden, Conn.). The data was fitted using Prism software to get an IC50 or Ki.

[2] = target: GSK-3β, (AA 1-420) (Homo sapiens, UniProt P49841); test: GSK-3 inhibition assay, coupled enzyme system; format: biochemical; details: 20 μM ATP, 300 μM peptide, 20 nM GSK-3b, 30° C.; read-out: Ki values (GSK3)
Sequence of GSK-3β, (AA 1-420) (P49841 whole entry, the tested form may be a part): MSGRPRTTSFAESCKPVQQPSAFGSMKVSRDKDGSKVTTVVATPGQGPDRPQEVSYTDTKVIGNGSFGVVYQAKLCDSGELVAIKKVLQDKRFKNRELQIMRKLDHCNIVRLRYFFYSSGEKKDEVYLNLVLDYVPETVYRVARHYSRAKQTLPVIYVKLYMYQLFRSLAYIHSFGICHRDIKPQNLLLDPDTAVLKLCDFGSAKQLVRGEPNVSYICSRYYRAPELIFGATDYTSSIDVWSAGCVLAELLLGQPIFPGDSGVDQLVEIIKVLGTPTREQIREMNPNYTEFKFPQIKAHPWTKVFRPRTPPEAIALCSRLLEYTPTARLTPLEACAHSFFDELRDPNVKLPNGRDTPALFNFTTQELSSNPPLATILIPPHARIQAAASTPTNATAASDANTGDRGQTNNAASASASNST
Procedure, shortened: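 Pyruvate kinase/lactate dehydrogenase-coupled NADH assay with 20 nM enzyme, 20 μM ATP and 300 μM peptide in HEPES pH 7.5, 1.5% DMSO, 30° C. Compound (0.002–30 μM, 12-point) preincubated 10 min before ATP start; rates over 10 min gave Ki.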

| Compound | Ki [1] [nM] | Ki [2] [nM] |
| --- | --- | --- |
| CC(=O)N1CCC(c2cnc3[nH]cc(-c4oncc4-c4cccc(F)c4F)c3c2)CC1 [Compound 63, 1-(4-{3-[4-(2,3-Difluoro-phenyl)-isoxazol-5-yl]-1H-pyrrolo[2,3-b]pyridin-5-yl}-piperidin-1-yl)-ethanone] | 200 to 1000 | < 200 |
| COc1cncc(-c2cnc3[nH]cc(-c4oncc4-c4cccc(F)c4F)c3c2)c1 [Compound 96, 3-[4-(2,3-Difluoro-phenyl)-isoxazol-5-yl]-5-(5-methoxy-pyridin-3-yl)-1H-pyrrolo[2,3-b]pyridine] | 200 to 1000 | 200 to 1000 |
| Fc1cccc(-c2cnoc2-c2c[nH]c3ncc(C4CCNCC4)cc23)c1F [Compound 62, 3-[4-(2,3-Difluoro-phenyl)-isoxazol-5-yl]-5-piperidin-4-yl-1H-pyrrolo[2,3-b]pyridine] | 200 to 1000 | 200 to 1000 |
| Clc1cccc(-c2cnoc2-c2c[nH]c3ncccc23)c1Cl [Compound 2, 3-[4-(2,3-Dichloro-phenyl)-isoxazol-5-yl]-1H-pyrrolo[2,3-b]pyridine] | 1000 to 12500 | 1000 to 12500 |
| CCN1CCC(c2cnc3[nH]cc(-c4oncc4-c4cccc(F)c4F)c3c2)CC1 [Compound 72, 3-[4-(2,3-Difluoro-phenyl)-isoxazol-5-yl]-5-(1-ethyl-piperidin-4-yl)-1H-pyrrolo[2,3-b]pyridine] | 1000 to 12500 | < 200 |
| Fc1cccc(-c2cnoc2-c2c[nH]c3ncc(C4=CCC(NCc5ccccc5)CC4)cc23)c1F (stereo not shown) [Compound 136, Benzyl-(4-{3-[4-(2,3-difluoro-phenyl)-isoxazol-5-yl]-1H-pyrrolo[2,3-b]pyridin-5-yl}-cyclohex-3-enyl)-amine] | 200 to 1000 | 200 to 1000 |
| CN1CCN(C(=O)[C@H]2C[C@H]2c2cnc3[nH]cc(-c4oncc4-c4cccc(F)c4F)c3c2)CC1 (relative stereo) [Compound 143, cis-(2-{3-[4-(2,3-Difluoro-phenyl)-isoxazol-5-yl]-1H-pyrrolo[2,3-b]pyridin-5-yl}-cyclopropyl)-(4-methyl-piperazin-1-yl)-methanone] | 200 to 1000 | 1000 to 12500 |
| CN(C)c1ccc(-c2cnc3[nH]cc(-c4nncn4-c4cccc(F)c4F)c3c2)cc1 [Compound 106, (4-{3-[4-(2,3-Difluoro-phenyl)-4H-[1,2,4]triazol-3-yl]-1H-pyrrolo[2,3-b]pyridin-5-yl}-phenyl)-dimethyl-amine] | 200 to 1000 | < 200 |
| Fc1cccc(-n2cnnc2-c2c[nH]c3ncc(-c4ccc(N5CCC[C@H]5CN5CCCC5)nc4)cc23)c1F [Compound 115, 3-[4-(2,3-Difluoro-phenyl)-4H-[1,2,4]triazol-3-yl]-5-[6-(2-pyrrolidin-1-ylmethyl-pyrrolidin-1-yl)-pyridin-3-yl]-1H-pyrrolo[2,3-b]pyridine] | 200 to 1000 | 200 to 1000 |
| Fc1cccc(Cc2cnoc2-c2c[nH]c3ncccc23)c1F [Compound 36, 3-[4-(2,3-Difluoro-benzyl)-isoxazol-5-yl]-1H-pyrrolo[2,3-b]pyridine] | 1000 to 12500 | 200 to 1000 |
| Fc1cccc(-c2cnoc2-c2c[nH]c3ncc(-c4ncccn4)cc23)c1F [Compound 75, 3-[4-(2,3-Difluoro-phenyl)-isoxazol-5-yl]-5-pyrimidin-2-yl-1H-pyrrolo[2,3-b]pyridine] | 200 to 1000 | 1000 to 12500 |
| CN1CCN(c2ccc(-c3cnc4[nH]cc(-c5nncn5-c5cccc(F)c5F)c4c3)cc2)CC1 [Compound 110, 3-[4-(2,3-Difluoro-phenyl)-4H-[1,2,4]triazol-3-yl]-5-[4-(4-methyl-piperazin-1-yl)-phenyl]-1H-pyrrolo[2,3-b]pyridine] | 200 to 1000 | 200 to 1000 |
| CN1CCN(c2ccc(-c3cnc4[nH]cc(-c5nncn5-c5cccc(F)c5F)c4c3)cn2)CC1 [Compound 112] | 200 to 1000 | 200 to 1000 |
| Fc1cccc(-c2cnoc2-c2c[nH]c3ncc(-c4ccc(CN5CCCC5)cc4)cc23)c1F [Compound 93, 3-[4-(2,3-Difluoro-phenyl)-isoxazol-5-yl]-5-(4-pyrrolidin-1-ylmethyl-phenyl)-1H-pyrrolo[2,3-b]pyridine] | < 200 | 200 to 1000 |

Continued, values first:

| Ki [1] [nM] | Ki [2] [nM] | Compound |
| --- | --- | --- |
| < 200 | 200 to 1000 | Fc1cccc(-c2cnoc2-c2c[nH]c3ncc(-c4ccc(CN5CCOCC5)cc4)cc23)c1F [Compound 92, 3-[4-(2,3-Difluoro-phenyl)-isoxazol-5-yl]-5-(4-morpholin-4-ylmethyl-phenyl)-1H-pyrrolo[2,3-b]pyridine] |
| < 200 | 200 to 1000 | CN(C)C(=O)c1ccc(-c2cnc3[nH]cc(-c4oncc4-c4cccc(F)c4F)c3c2)nc1 [Compound 79, 6-{3-[4-(2,3-Difluoro-phenyl)-isoxazol-5-yl]-1H-pyrrolo [2,3-b]pyridin-5-yl}-N,N-dimethyl-nicotinamide] |
| < 200 | < 200 | CN(C)Cc1ccnc(-c2cnc3[nH]cc(-c4oncc4-c4cccc(F)c4F)c3c2)c1 [Compound 82, (2-{3-[4-(2,3-Difluoro-phenyl)-isoxazol-5-yl]-1H-pyrrolo[2,3-b]pyridin-5-yl}-pyridin-4-ylmethyl)-dimethyl-amine] |
| < 200 | 1000 to 12500 | CC(=O)Nc1ccc(-c2cnc3[nH]cc(-c4oncc4-c4cccc(F)c4F)c3c2)cc1 [Compound 95, N-(4-{3-[4-(2,3-Difluoro-phenyl)-isoxazol-5-yl]-1H-pyrrolo[2,3-b]pyridin-5-yl}-phenyl)-acetamide] |
| < 200 | 200 to 1000 | CN1CCN(c2ccc(-c3cnc4[nH]cc(-c5oncc5-c5cccc(F)c5F)c4c3)cn2)CC1 [Compound 71, 3-[4-(2,3-Difluoro-phenyl)-isoxazol-5-yl]-5-[6-(4-methyl-piperazin-1-yl)-pyridin-3-yl]-1H-pyrrolo[2,3-b]pyridine] |
| < 200 | 200 to 1000 | CN1CCN(Cc2ccc(-c3cnc4[nH]cc(-c5oncc5-c5cccc(F)c5F)c4c3)cc2)CC1 [Compound 94, 3-[4-(2,3-Difluoro-phenyl)-isoxazol-5-yl]-5-[4-(4-methyl-piperazin-1-ylmethyl)-phenyl]-1H-pyrrolo[2,3-b]pyridine] |
| < 200 | 200 to 1000 | Fc1cccc(-c2cnoc2-c2c[nH]c3ncc(-c4cccnc4)cc23)c1F [Compound 59, 3-[4-(2,3-Difluoro-phenyl)-isoxazol-5-yl]-5-pyridin-3-yl-1H-pyrrolo[2,3-b]pyridine] |
| < 200 | < 200 | Fc1cccc(-c2cnoc2-c2c[nH]c3ncc(-c4ccc(N5CCNCC5)cc4)cc23)c1F [Compound 68, 3-[4-(2,3-Difluoro-phenyl)-isoxazol-5-yl]-5-(4-piperazin-1-yl-phenyl)-1H-pyrrolo[2,3-b]pyridine] |
| < 200 | 200 to 1000 | Fc1cccc(-c2cnoc2-c2c[nH]c3ncc(-c4c[nH]cn4)cc23)c1F [Compound 76, 3-[4-(2,3-Difluoro-phenyl)-isoxazol-5-yl]-5-(3H-imidazol-4-yl)-1H-pyrrolo[2,3-b]pyridine] |
